Results published in US12570648B2, “6,7-dihydro-5H-pyrido[2,3-c]pyridazine derivatives and related compounds as Bcl-xL protein inhibitors and pro-apoptotic agents for treating cancer” (LES LABORATOIRES SERVIER, priority 2019, dated 2026).

Tests used:
MOLT-4 cells = assay: MOLT-4 cell viability using MTT assay; assay type: cell-based; settings: Homo sapiens, MOLT-4, 48 h, 48 h exposure
Protocol: MTT colorimetric assay is based on the mitochondrial reduction of tetrazolium salt by living cells.
Cells were cultured at 37° C. in a humidified atmosphere containing 5% CO2. […] At the end of incubation time, 15 μL of MTT solution (5 mg/ml) were added per well and the cells were incubated for another 4 h. […] IC50s were calculated using standard four-parametric curve fitting.

H146 cells = assay: H146 cell viability using MTT assay; assay type: cell-based; settings: Homo sapiens, NCI-H146, 48 h exposure
Protocol: MTT colorimetric assay is based on the mitochondrial reduction of tetrazolium salt by living cells. The viable cell number is proportional to the production of formazan salts, which can be read spectrophotometrically at 540 nm.
MOLT-4 and H146 cells were purchased from ATCC and cultivated in RPMI 1640 supplemented with 10% heat inactivated fetal bovine serum, penicillin (100 IU/ml), streptomycin (100 μg/ml) and L-glutamine (2 mM). Cells were cultured at 37° C. in a humidified atmosphere containing 5% CO2. Cells were seeded in 96 microwell plates (150p per well) and exposed to the compounds for 48 h (3.16 fold serially diluted; 9 concentrations each, triplicates). At the end of incubation time, 15 μL of MTT solution (5 mg/ml) were added per well and the cells were incubated for another 4 h. Then, 100 μL of 10% Sodium Dodecyl Sulfate (SDS)/HCl 10 mM were added per well and the plate was incubated overnight, before measurement of optical density at 540 nm. IC50s were calculated using standard four-parametric curve fitting.

[1] = molecular target: His-His-(EK)-hsBCLXL(2-197)[N197C] (Homo sapiens (Human), UniProt Q07817, N197C); assay: Fluorescence quenching assay; assay type: binding; settings: 1 nM Cy5-labelled protein, 400 nM PUMA peptide, 2 hours at 23° C.; KI determined from IC50
Summary of the method: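 Cy5-labelled BCL-xL (1 nM) with TQ5WS quencher-labelled PUMA peptide (400 nM); displacement by compound (11-point dilution) raises fluorescence. Buffer 10 mM HEPES, 150 mM NaCl, 0.05% Tween 20, pH 7.4, 5% DMSO; 2 h at 23° C, Ex 620/Em 680 nm. Ki derived from IC50.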

His-His-(EK)-hsBCLXL(2-197)[N197C], sequence (Q07817 2-197 N197C): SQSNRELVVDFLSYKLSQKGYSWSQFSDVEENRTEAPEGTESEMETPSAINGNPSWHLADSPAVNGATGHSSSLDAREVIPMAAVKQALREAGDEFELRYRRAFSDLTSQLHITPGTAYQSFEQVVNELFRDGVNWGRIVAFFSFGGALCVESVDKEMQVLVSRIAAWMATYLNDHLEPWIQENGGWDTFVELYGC

SMILES	IC50 (MOLT-4 cells) [nM]	IC50 (H146 cells) [nM]	Ki [1] [nM]
Cc1c(Nc2nc3ccccc3s2)nnc2c1CCCN2c1nc(C(=O)O)c(CCCOc2ccc(C#CCN(C)C)cc2C(F)(F)F)s1 [Example 40, 2-{3-[(1,3-Benzothiazol-2-yl)amino]-4-methyl-5H,6H,7H,8H-pyrido[2,3-c]pyridazin-8-yl}-5-(3-{4-[3-(dimethylamino)prop-1-yn-1-yl]-2-(trifluoromethyl)phenoxy}propyl)-1,3-thiazole-4-carboxylic acid]	8.16	20.8	0.057
Cc1c(Nc2nc3ccccc3s2)nnc2c1CCCN2c1nc(C(=O)O)c(CCCOc2ccc(OCCN3CCCC3)cc2)s1 [Example 52, 2-{3-[(1,3-Benzothiazol-2-yl)amino]-4-methyl-5H,6H,7H,8H-pyrido[2,3-c]pyridazin-8-yl}-5-(3-{4-[2-(pyrrolidin-1-yl)ethoxy]phenoxy}propyl)-1,3-thiazole-4-carboxylic acid]	2.42	10.7	0.0013
Cc1c(Nc2nc3ccccc3s2)nnc2c1CCCN2c1nc(C(=O)O)c(CCCOc2ccc(CCCN3CCC3)cc2F)s1 [Example 67, 5-[3-[4-[3-(Azetidin-1-yl)propyl]-2-fluoro-phenoxy]propyl]-2-[3-(1,3-benzothiazol-2-ylamino)-4-methyl-6,7-dihydro-5H-pyrido[2,3-c]pyridazin-8-yl]thiazole-4-carboxylic acid]	7.4	14.6	0.0032
Cc1c(Nc2nc3ccccc3s2)nnc2c1CCCN2c1nc(C(=O)O)c(CCCOc2ccc(C#CCN3CCCC(F)(F)C3)cc2F)s1 [Example 50, 2-{3-[(1,3-Benzothiazol-2-yl)amino]-4-methyl-5H,6H,7H,8H-pyrido[2,3-c]pyridazin-8-yl}-5-(3-{4-[3-(3,3-difluoropiperidin-1-yl)prop-1-yn-1-yl]-2-fluorophenoxy}propyl)-1,3-thiazole-4-carboxylic acid]	3.71	87.7	0.071
CNCCN[C@@H]1Cc2c(nnc(Nc3nc4ccccc4s3)c2C)N(c2nc(C(=O)O)c(CCCOc3ccc(CCCN(C)C)cc3F)s2)C1 [Example 39, 2-[(6R)-3-[(1,3-Benzothiazol-2-yl)amino]-4-methyl-6-{[2-(methylamino)ethyl]amino}-5H,6H,7H,8H-pyrido[2,3-c]pyridazin-8-yl]-5-(3-{4-[3-(dimethylamino)propyl]-2-fluorophenoxy}propyl)-1,3-thiazole-4-carboxylic acid]	37.1	33.6	0.0098
Cc1c(Nc2nc3ccccc3s2)nnc2c1CCCN2c1nc(C(=O)O)c(CCCOc2ccc(CCN(C)C)cc2F)s1 [Example 53, 2-{3-[(1,3-Benzothiazol-2-yl)amino]-4-methyl-5H,6H,7H,8H-pyrido[2,3-c]pyridazin-8-yl}-5-(3-{4-[2-(dimethylamino)ethyl]-2-fluorophenoxy}propyl)-1,3-thiazole-4-carboxylic acid]	9.74	14.9	0.0066
Cc1c(Nc2nc3ccccc3s2)nnc2c1CCCN2c1nc(C(=O)O)c(CCCOc2ccc(C#CCN(C)C)cc2Cl)s1 [Example 51, 2-{3-[(1,3-Benzothiazol-2-yl)amino]-4-methyl-5H,6H,7H,8H-pyrido[2,3-c]pyridazin-8-yl}-5-(3-{2-chloro-4-[3-(dimethylamino)prop-1-yn-1-yl]phenoxy}propyl)-1,3-thiazole-4-carboxylic acid]	2.54	9.6	0.012
Cc1c(Nc2nc3ccccc3s2)nnc2c1CCCN2c1nc(C(=O)O)c(CCCOc2ccc(C#CC(C)N3CCCC3)cc2F)s1 (stereo not drawn) [Example 43, 2-[3-(1,3-Benzothiazol-2-ylamino)-4-methyl-6,7-dihydro-5H-pyrido[2,3-c]pyridazin-8-yl]-5-[3-[2-fluoro-4-(3-pyrrolidin-1-ylbut-1-ynyl)phenoxy]propyl]thiazole-4-carboxylic acid]	1.71	11.7	0.0031
Cc1c(Nc2nc3ccccc3s2)nnc2c1CCCN2c1nc(C(=O)O)c(CCCOc2ccc(CCCN3CCOCC3)cc2F)s1 [Example 70, 2-[3-(1,3-Benzothiazol-2-ylamino)-4-methyl-6,7-dihydro-5H-pyrido[2,3-c]pyridazin-8-yl]-5-[3-[2-fluoro-4-(3-morpholinopropyl)phenoxy]propyl]thiazole-4-carboxylic acid]	3.08	16.9	0.017

The next compounds have a lower IC50 (MOLT-4 cells) than those just listed; values first:

IC50 (MOLT-4 cells) [nM]	IC50 (H146 cells) [nM]	Ki [1] [nM]	SMILES
0.957	7.31	0.0089	Cc1c(Nc2nc3ccccc3s2)nnc2c1CCCN2c1nc(C(=O)O)c(CCCOc2ccc(C#CCN3CCOCC3)cc2F)s1 [Example 47, 2-[3-(1,3-Benzothiazol-2-ylamino)-4-methyl-6,7-dihydro-5H-pyrido[2,3-c]pyridazin-8-yl]-5-[3-[2-fluoro-4-(3-morpholinoprop-1-ynyl)phenoxy]propyl]thiazole-4-carboxylic acid]
0.327	3.02	0.0028	Cc1c(Nc2nc3ccccc3s2)nnc2c1CCCN2c1nc(C(=O)O)c(CCCOc2ccc(C#CCN3CCCC3)cc2F)s1 [Example 42, 2-[3-(1,3-Benzothiazol-2-ylamino)-4-methyl-6,7-dihydro-5H-pyrido[2,3-c]pyridazin-8-yl]-5-[3-[2-fluoro-4-(3-pyrrolidin-1-ylprop-1-ynyl)phenoxy]propyl]thiazole-4-carboxylic acid]
0.551	10.6	0.0049	Cc1c(Nc2nc3ccccc3s2)nnc2c1CCCN2c1nc(C(=O)O)c(CCCOc2ccc(C#CCN3CCC3)cc2F)s1 [Example 45, 5-(3-{4-[3-(Azetidin-1-yl)prop-1-yn-1-yl]-2-fluorophenoxy}propyl)-2-{3-[(1,3-benzothiazol-2-yl)amino]-4-methyl-5H,6H,7H,8H-pyrido[2,3-c]pyridazin-8-yl}-1,3-thiazole-4-carboxylic acid]
0.309	2.25	0.0016	Cc1c(Nc2nc3ccccc3s2)nnc2c1CCCN2c1nc(C(=O)O)c(CCCOc2ccc(C#CCN3CCN(C)CC3)cc2F)s1 [Example 48, 2-[3-(1,3-Benzothiazol-2-ylamino)-4-methyl-6,7-dihydro-5H-pyrido[2,3-c]pyridazin-8-yl]-5-[3-[2-fluoro-4-[3-(4-methylpiperazin-1-yl)prop-1-ynyl]phenoxy]propyl]thiazole-4-carboxylic acid]
0.36	3.67	0.0025	Cc1c(Nc2nc3ccccc3s2)nnc2c1CCCN2c1nc(C(=O)O)c(CCCOc2ccc(C#CC(C)N3CCN(C)CC3)cc2F)s1 (stereo not drawn) [Example 41, 2-[3-(1,3-Benzothiazol-2-ylamino)-4-methyl-6,7-dihydro-5H-pyrido[2,3-c]pyridazin-8-yl]-5-[3-[2-fluoro-4-[3-(4-methylpiperazin-1-yl)but-1-ynyl]phenoxy]propyl]thiazole-4-carboxylic acid]
0.949	5.65	0.0092	Cc1c(Nc2nc3ccccc3s2)nnc2c1CCCN2c1nc(C(=O)O)c(CCCOc2ccc(C#CCN3CCCC(O)C3)cc2F)s1 (stereo not drawn) [Example 55, 2-[3-(1,3-Benzothiazol-2-ylamino)-4-methyl-6,7-dihydro-5H-pyrido[2,3-c]pyridazin-8-yl]-5-[3-[2-fluoro-4-[3-(3-hydroxy-1-piperidyl)prop-1-ynyl]phenoxy]propyl]thiazole-4-carboxylic acid]
